Laboratory results from PubChem BioAssay (NCI).
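Briefly, cells in 96-well plates were exposed to five compound concentrations for 48 h, and endpoints were estimated by linear interpolation. At the TGI there is no net growth.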

Columns and labels:
Assay in all cases: inhibition of tumour cell growth, NCI panel, 48 h
786-0 renal = system: 786-0 renal
A549 NSCLC = system: A549 NSCLC
BT-549 breast = system: BT-549 breast
CAKI-1 renal = system: CAKI-1 renal
CCRF-CEM leukemia = system: CCRF-CEM leukemia
COLO 205 colon = system: COLO 205 colon
DU-145 prostate = system: DU-145 prostate
EKVX NSCLC = system: EKVX NSCLC
HCC-2998 colon = system: HCC-2998 colon
HCT-116 colon = system: HCT-116 colon
HCT-15 colon = system: HCT-15 colon
HOP-62 NSCLC = system: HOP-62 NSCLC
HOP-92 NSCLC = system: HOP-92 NSCLC
HS 578T breast = system: HS 578T breast
HT29 colon = system: HT29 colon
IGROV1 ovarian = system: IGROV1 ovarian
K-562 leukemia = system: K-562 leukemia
KM12 colon = system: KM12 colon
LOX IMVI melanoma = system: LOX IMVI melanoma
M14 melanoma = system: M14 melanoma
MALME-3M melanoma = system: MALME-3M melanoma
MCF7 breast = system: MCF7 breast
MDA-MB-231 breast = system: MDA-MB-231 breast
MDA-MB-435 = system: MDA-MB-435
MDA-N = system: MDA-N
MOLT-4 leukemia = system: MOLT-4 leukemia
NCI-H226 lung = system: NCI-H226 lung
NCI-H23 lung = system: NCI-H23 lung
NCI-H460 lung = system: NCI-H460 lung
NCI/ADR-RES ovarian = system: NCI/ADR-RES ovarian
OVCAR-3 ovarian = system: OVCAR-3 ovarian
OVCAR-4 ovarian = system: OVCAR-4 ovarian
OVCAR-5 ovarian = system: OVCAR-5 ovarian
OVCAR-8 ovarian = system: OVCAR-8 ovarian
PC-3 prostate = system: PC-3 prostate
RPMI-8226 leukemia = system: RPMI-8226 leukemia
RXF 393 renal = system: RXF 393 renal
SF-268 CNS = system: SF-268 CNS
SF-295 CNS = system: SF-295 CNS
SF-539 CNS = system: SF-539 CNS
SK-MEL-2 melanoma = system: SK-MEL-2 melanoma
SK-MEL-5 melanoma = system: SK-MEL-5 melanoma
SK-OV-3 ovarian = system: SK-OV-3 ovarian
SN12C renal = system: SN12C renal
SNB-19 CNS = system: SNB-19 CNS
SNB-75 CNS = system: SNB-75 CNS
SW-620 colon = system: SW-620 colon
T-47D breast = system: T-47D breast
U251 CNS = system: U251 CNS
UACC-257 melanoma = system: UACC-257 melanoma
UACC-62 melanoma = system: UACC-62 melanoma
UO-31 renal = system: UO-31 renal
A498 renal = system: A498 renal
ACHN renal = system: ACHN renal
HL-60(TB) leukemia = system: HL-60(TB) leukemia
NCI-H522 lung = system: NCI-H522 lung
SK-MEL-28 melanoma = system: SK-MEL-28 melanoma
TK-10 renal = system: TK-10 renal

`CCCc1cc(=O)oc2c3c(c4c(c12)OC(C)(C)CC4)O[C@H](C)[C@@H](C)[C@H]3O` was tested, and the TGI (786-0 renal) was 29.8 µM, the TGI (A549 NSCLC) was 64 µM and the TGI (BT-549 breast) was 26.6 µM. It also gave a TGI (CAKI-1 renal) of 35.1 µM, a TGI (CCRF-CEM leukemia) of 33.8 µM and a TGI (COLO 205 colon) of 33.6 µM. The TGI (DU-145 prostate) was 29.8 µM, the TGI (EKVX NSCLC) was 26.2 µM and the TGI (HCC-2998 colon) was 31.8 µM. For the same compound, the TGI (HCT-116 colon) was 29.4 µM, the TGI (HCT-15 colon) was 27.5 µM and the TGI (HOP-62 NSCLC) was 35.3 µM. The TGI (HOP-92 NSCLC) was 33.3 µM, the TGI (HS 578T breast) was 50.2 µM and the TGI (HT29 colon) was 22.7 µM. It also gave a TGI (IGROV1 ovarian) of 30.8 µM, a TGI (K-562 leukemia) of 21.1 µM and a TGI (KM12 colon) of 28.7 µM. For the same compound, the TGI (LOX IMVI melanoma) was 31.7 µM, the TGI (M14 melanoma) was 37.2 µM and the TGI (MALME-3M melanoma) was 37.9 µM. For the same compound, the TGI (MCF7 breast) was 43.2 µM, the TGI (MDA-MB-231 breast) was 30.9 µM and the TGI (MDA-MB-435) was 25.7 µM. For the same compound, the TGI (MDA-N) was 23.7 µM, the TGI (MOLT-4 leukemia) was 27.8 µM and the TGI (NCI-H226 lung) was 34.2 µM. The TGI (NCI-H23 lung) was 30.3 µM, the TGI (NCI-H460 lung) was 41.7 µM and the TGI (NCI/ADR-RES ovarian) was 33.1 µM. The TGI (OVCAR-3 ovarian) was 37.7 µM, the TGI (OVCAR-4 ovarian) was 28.6 µM and the TGI (OVCAR-5 ovarian) was 31.6 µM. The TGI (OVCAR-8 ovarian) was 32.6 µM, the TGI (PC-3 prostate) was 23.5 µM and the TGI (RPMI-8226 leukemia) was 18.8 µM. The TGI (RXF 393 renal) was 47.3 µM, the TGI (SF-268 CNS) was 35.1 µM and the TGI (SF-295 CNS) was 32 µM. The TGI (SF-539 CNS) was 41.9 µM, the TGI (SK-MEL-2 melanoma) was 49.1 µM and the TGI (SK-MEL-5 melanoma) was 29.3 µM. The TGI (SK-OV-3 ovarian) was 31.7 µM, the TGI (SN12C renal) was 34.3 µM and the TGI (SNB-19 CNS) was 32.2 µM. The TGI (SNB-75 CNS) was 31.3 µM, the TGI (SW-620 colon) was 35.8 µM and the TGI (T-47D breast) was 29.8 µM. The TGI (U251 CNS) was 32.2 µM, the TGI (UACC-257 melanoma) was 28.1 µM and the TGI (UACC-62 melanoma) was 27.4 µM. It also gave a TGI (UO-31 renal) of 26.7 µM.

In the case of `Cc1ccc2nc(NC(=O)C(=O)C3C(=O)NC(=S)NC3=O)sc2c1`, the TGI (786-0 renal) is reported as > 100 µM, the TGI (A498 renal) is reported as > 100 µM and the TGI (A549 NSCLC) is reported as > 100 µM. The TGI (ACHN renal) was > 100 µM, the TGI (BT-549 breast) was > 100 µM and the TGI (CAKI-1 renal) was > 100 µM. The TGI (CCRF-CEM leukemia) was > 100 µM, the TGI (EKVX NSCLC) was > 100 µM and the TGI (HCC-2998 colon) was > 100 µM. The TGI (HCT-116 colon) was > 100 µM, the TGI (HCT-15 colon) was > 100 µM and the TGI (HL-60(TB) leukemia) was > 100 µM. For the same compound, the TGI (HOP-62 NSCLC) was > 100 µM, the TGI (HOP-92 NSCLC) was > 100 µM and the TGI (HS 578T breast) was > 100 µM. For the same compound, the TGI (HT29 colon) was > 100 µM, the TGI (IGROV1 ovarian) was > 100 µM and the TGI (KM12 colon) was > 100 µM. For the same compound, the TGI (LOX IMVI melanoma) was > 100 µM, the TGI (M14 melanoma) was > 100 µM and the TGI (MALME-3M melanoma) was > 100 µM. For the same compound, the TGI (MCF7 breast) was > 100 µM, the TGI (MDA-MB-231 breast) was > 100 µM and the TGI (MDA-MB-435) was > 100 µM. The TGI (MDA-N) was > 100 µM, the TGI (MOLT-4 leukemia) was > 100 µM and the TGI (NCI-H226 lung) was > 100 µM. The TGI (NCI-H23 lung) was > 100 µM, the TGI (NCI-H460 lung) was > 100 µM and the TGI (NCI-H522 lung) was > 100 µM. For the same compound, the TGI (NCI/ADR-RES ovarian) was > 100 µM, the TGI (OVCAR-3 ovarian) was > 100 µM and the TGI (OVCAR-4 ovarian) was > 100 µM. The TGI (OVCAR-5 ovarian) was > 100 µM, the TGI (OVCAR-8 ovarian) was > 100 µM and the TGI (PC-3 prostate) was > 100 µM. The TGI (RPMI-8226 leukemia) was > 100 µM, the TGI (RXF 393 renal) was > 100 µM and the TGI (SF-268 CNS) was > 100 µM. For the same compound, the TGI (SF-295 CNS) was > 100 µM, the TGI (SF-539 CNS) was > 100 µM and the TGI (SK-MEL-2 melanoma) was > 100 µM. The TGI (SK-MEL-28 melanoma) was > 100 µM, the TGI (SK-MEL-5 melanoma) was > 100 µM and the TGI (SK-OV-3 ovarian) was > 100 µM. For the same compound, the TGI (SN12C renal) was > 100 µM, the TGI (SNB-19 CNS) was > 100 µM and the TGI (SNB-75 CNS) was > 100 µM. The TGI (SW-620 colon) was > 100 µM, the TGI (T-47D breast) was > 100 µM and the TGI (TK-10 renal) was > 100 µM. The TGI (U251 CNS) was > 100 µM, the TGI (UACC-257 melanoma) was > 100 µM and the TGI (UACC-62 melanoma) was > 100 µM. The TGI (UO-31 renal) was > 100 µM.
